The text below walks through data of US8937058B2, “17-hydroxy-19-nor-21-carboxylic acid-steroid γ-lactone derivative, use thereof, and medicament containing the derivative” (priority 2007, dated 2015).

Read-outs that look alike come from different tables or passages of the source.

Assay [1] has as its target T1, mineralocorticoid receptor (Homo sapiens (Human), UniProt P08235). In words: Mineralocorticoid receptor binding test (displacement of 3H-aldosterone, cytosol from Hi5 insect cells). The following applies: reference substance 3H-aldosterone. On the procedure: 2. Mineralocorticoid Receptor Binding Test:
The test was carried out as in 1., with the following modifications: cytosol from mineralocorticoid receptor-expressing insect cells (Hi5) was used, and the reference substance was ^3H-aldosterone.
In general terms: In a radioligand displacement assay an active substance lowers the binding of a labelled ligand.

Assay [2] concerns the target T2, androgen receptor (Homo sapiens (Human), UniProt P10275). The following applies: for IC50: read-out: Androgen receptor IC50, receptor binding, 3H-testosterone displacement; for Androgen receptor Competition factor: reference substance 3H-testosterone. As for the experimental part:
3. Androgen Receptor Binding Test:
The test was carried out as in 1., with the following modifications: cytosol from androgen receptor-expressing insect cells (Hi5) was used, and the reference substance was ^3H-testosterone.

Assay [3] addresses T1, mineralocorticoid receptor. In words: Antimineralocorticoid action by transactivation test (MDCK luciferase reporter cells). It is filed as cell-based. The following applies: in-vitro transactivation, 1 nM aldosterone; for IC50: read-out: Mineralocorticoid receptor Antagonism IC50. On the procedure: 5. Determination of Antimineralocorticoid Action by Means of Transactivation Tests:
The antimineralocorticoid activity of the test substances was determined as for the transactivation tests described above.
The following modifications were undertaken: In this case reporter cell lines were used (MDCK cells) that express the human mineralocorticoid receptor, and transiently contain a reporter construct that contains luciferase under the control of a steroid hormone-responsive promoter.
For determination of antimineralocorticoid efficacy, 1 nM aldosterone (SIGMA A-6628, Lot 22H4033) was added to the cells, to achieve almost maximum stimulation of the reporter gene. Inhibition of the effect indicated a mineralocorticoid-antagonistic action of the substances (Table 2; for comparison, corresponding values for drospirenone (A)).

Assay [4] addresses T2, androgen receptor. Briefly: cell-based. Conditions: for Androgen receptor Agonism efficacy / Androgen receptor Antagonism efficacy: in-vitro transactivation, PC3 cells; for Androgen receptor Antagonism efficacy: 0.05 nM R1881. On the procedure: 6. Determination of Androgenic/Antiandrogenic Action by Means of Transactivation Tests:
The androgenic/antiandrogenic action of the test substances was determined as for the transactivation tests described above.
The following modifications were made: In this case reporter cell lines were used (PC3 cells) that express the androgen receptor, and a reporter construct that contains luciferase under the control of a steroid hormone-responsive promoter.
For determination of the antiandrogenic efficacy, 0.05 nM R1881 was added to the cells, in order to achieve almost maximum stimulation of the reporter gene.

For assay [5], the target named is fusion protein from the PR-ligand-binding domain and a Gal4-transactivation domain (Homo sapiens (Human), UniProt P06401). In words: cell-based. The following applies: for Progesterone receptor Agonism EC50 / Progesterone receptor Agonism efficacy: in-vitro transactivation, CHO K1 reporter cells; for Progesterone receptor Agonism EC50: 16 hours. As for the experimental part:
4. Determination of Progestational Action by Means of Transactivation Tests:
The test compounds were added eight hours later, and the cells were incubated with the compounds for 16 hours. The tests were carried out in triplicate. At the end of incubation the medium containing the effector was removed and replaced with lysis buffer. After luciferase assay substrate (Promega, #E1501) had been added, the 96-well plates were then put in a microplate luminometer (Pherastar, BMG Labtech), and the luminescence was measured. The IC50 values were evaluated using software for calculating dose-effect relations.

A further assay deals with progesterone receptor (Homo sapiens (Human), UniProt P06401). Conditions: for Progesterone receptor (PR) Competition factor: CF of 1 = affinity of progesterone, CF >1 lower affinity; for CF PR/CF MR: ratio of the competition factors CF(PR) and CF(MR); for IC50: read-out: Progesterone receptor (PR) IC50, receptor binding, 3H-progesterone displacement.
Chain of progesterone receptor (P06401 whole entry, species assumed): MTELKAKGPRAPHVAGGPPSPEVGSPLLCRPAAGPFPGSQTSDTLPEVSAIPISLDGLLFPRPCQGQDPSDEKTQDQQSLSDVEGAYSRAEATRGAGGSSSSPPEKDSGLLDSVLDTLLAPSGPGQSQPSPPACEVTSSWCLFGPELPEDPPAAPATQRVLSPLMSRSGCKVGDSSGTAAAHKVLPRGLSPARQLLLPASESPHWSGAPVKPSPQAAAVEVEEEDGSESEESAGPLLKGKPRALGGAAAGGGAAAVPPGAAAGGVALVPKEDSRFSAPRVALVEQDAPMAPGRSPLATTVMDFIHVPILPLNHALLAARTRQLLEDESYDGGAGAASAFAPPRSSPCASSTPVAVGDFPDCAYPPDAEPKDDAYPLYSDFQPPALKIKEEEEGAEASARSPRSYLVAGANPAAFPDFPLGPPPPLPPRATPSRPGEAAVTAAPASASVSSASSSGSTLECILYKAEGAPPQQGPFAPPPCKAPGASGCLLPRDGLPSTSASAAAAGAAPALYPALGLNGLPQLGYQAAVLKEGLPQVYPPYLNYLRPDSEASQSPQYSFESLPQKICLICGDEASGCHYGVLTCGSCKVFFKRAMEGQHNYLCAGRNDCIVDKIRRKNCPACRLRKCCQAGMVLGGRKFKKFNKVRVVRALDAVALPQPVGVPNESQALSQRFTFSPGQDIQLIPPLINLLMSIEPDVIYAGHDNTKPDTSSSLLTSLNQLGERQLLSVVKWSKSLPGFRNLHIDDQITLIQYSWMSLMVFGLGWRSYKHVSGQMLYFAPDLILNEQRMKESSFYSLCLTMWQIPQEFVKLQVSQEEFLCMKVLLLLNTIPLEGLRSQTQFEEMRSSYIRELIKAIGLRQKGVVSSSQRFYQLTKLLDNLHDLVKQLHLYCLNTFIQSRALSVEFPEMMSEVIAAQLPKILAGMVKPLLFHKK

T2 sequence (P10275 whole entry, species assumed): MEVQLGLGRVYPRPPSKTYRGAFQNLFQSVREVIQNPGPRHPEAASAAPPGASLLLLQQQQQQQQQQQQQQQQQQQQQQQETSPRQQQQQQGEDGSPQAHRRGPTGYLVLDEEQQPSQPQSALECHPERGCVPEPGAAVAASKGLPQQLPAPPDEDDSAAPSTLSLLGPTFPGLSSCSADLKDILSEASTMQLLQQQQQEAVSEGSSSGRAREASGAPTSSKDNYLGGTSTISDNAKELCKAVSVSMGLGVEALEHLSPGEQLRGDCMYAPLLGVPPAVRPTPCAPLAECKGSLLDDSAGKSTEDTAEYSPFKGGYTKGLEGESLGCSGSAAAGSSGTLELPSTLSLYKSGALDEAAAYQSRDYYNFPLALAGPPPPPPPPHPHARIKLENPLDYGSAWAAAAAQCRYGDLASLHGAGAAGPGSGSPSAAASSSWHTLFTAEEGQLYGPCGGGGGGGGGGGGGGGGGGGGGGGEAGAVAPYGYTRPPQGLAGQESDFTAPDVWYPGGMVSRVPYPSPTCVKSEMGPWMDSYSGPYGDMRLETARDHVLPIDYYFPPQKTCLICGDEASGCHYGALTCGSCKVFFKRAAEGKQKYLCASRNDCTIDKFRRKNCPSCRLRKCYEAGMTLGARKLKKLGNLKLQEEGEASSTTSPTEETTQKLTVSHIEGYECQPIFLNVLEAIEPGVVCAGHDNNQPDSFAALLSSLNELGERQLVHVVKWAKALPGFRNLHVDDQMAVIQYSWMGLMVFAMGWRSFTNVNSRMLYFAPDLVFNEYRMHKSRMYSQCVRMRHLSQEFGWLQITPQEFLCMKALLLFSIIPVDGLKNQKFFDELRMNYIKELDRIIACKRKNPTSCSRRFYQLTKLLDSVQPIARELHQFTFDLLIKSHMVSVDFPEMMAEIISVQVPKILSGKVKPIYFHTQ
Chain of fusion protein from the PR-ligand-binding domain and a Gal4-transactivation domain (P06401 679-913): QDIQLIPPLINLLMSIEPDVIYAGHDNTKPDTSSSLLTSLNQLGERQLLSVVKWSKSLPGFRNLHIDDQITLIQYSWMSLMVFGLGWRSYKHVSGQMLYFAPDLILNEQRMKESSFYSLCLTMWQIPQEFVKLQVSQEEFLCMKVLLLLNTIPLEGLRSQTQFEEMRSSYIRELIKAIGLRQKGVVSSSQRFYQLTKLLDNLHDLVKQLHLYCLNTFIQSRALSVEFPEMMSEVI
T1 sequence (P08235 whole entry): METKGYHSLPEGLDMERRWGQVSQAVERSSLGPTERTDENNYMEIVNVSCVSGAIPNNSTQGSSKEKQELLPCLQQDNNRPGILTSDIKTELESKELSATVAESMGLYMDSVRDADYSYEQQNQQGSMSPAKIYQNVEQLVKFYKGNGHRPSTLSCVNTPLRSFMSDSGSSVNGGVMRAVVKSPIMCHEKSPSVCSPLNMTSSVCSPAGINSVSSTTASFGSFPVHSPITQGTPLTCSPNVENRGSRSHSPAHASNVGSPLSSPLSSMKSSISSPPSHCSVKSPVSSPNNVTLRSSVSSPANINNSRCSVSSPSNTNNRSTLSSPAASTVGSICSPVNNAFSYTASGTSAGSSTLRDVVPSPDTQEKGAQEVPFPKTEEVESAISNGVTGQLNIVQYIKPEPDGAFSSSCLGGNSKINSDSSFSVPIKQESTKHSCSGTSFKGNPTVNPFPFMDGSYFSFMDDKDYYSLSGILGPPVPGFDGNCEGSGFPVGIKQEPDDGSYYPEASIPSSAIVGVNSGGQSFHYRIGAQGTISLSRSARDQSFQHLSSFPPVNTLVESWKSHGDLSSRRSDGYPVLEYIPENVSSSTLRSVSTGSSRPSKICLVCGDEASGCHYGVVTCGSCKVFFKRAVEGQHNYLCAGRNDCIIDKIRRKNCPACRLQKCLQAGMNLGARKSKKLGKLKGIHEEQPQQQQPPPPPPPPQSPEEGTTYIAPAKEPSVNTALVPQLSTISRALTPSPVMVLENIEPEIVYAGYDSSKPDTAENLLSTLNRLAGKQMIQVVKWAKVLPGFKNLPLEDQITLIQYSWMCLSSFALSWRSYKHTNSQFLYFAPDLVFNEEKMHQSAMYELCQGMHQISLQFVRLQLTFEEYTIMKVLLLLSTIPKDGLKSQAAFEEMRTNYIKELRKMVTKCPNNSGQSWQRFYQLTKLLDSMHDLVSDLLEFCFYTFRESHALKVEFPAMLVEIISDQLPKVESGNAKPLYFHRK
Method for progesterone receptor: Progesterone Receptor Binding Test:
Using cytosol from progesterone receptor-expressing insect cells (Hi5), competitive binding to the progesterone receptor was determined from the ability to displace ^3H-progesterone as reference substance from the receptor.

Broadly, the IC50 is the concentration needed to halve the response being measured. One may read the EC50 as the concentration giving half of the maximal effect. Lower therefore signals greater potency. Turning to `C[C@]12CC[C@H]3[C@@H](C=CC4=CC(=O)CC[C@@H]43)[C@@H]1CC[C@@]21C=CC(=O)O1` (stereo in doubt) [Example 1, 17β-Hydroxy-19-nor-17α-pregna-4,6,20(Z)-trien-3-one-21-carboxylic acid γ-lactone], the “Mineralocorticoid receptor (MR) Competition factor” value in assay [1] is on record as 33.0. For the same compound, on androgen receptor [2], the 50% inhibitory concentration (IC50) turned out to be 10000 nM and the “Androgen receptor Competition factor” value was found to be 1000.0. In assay [3], the “Mineralocorticoid receptor Antagonism efficacy” value turned out to be 93.2% and the 50% inhibitory concentration (IC50) is 870 nM. At androgen receptor [4], the midpoint of the response, the EC50, lay at 130 nM; the IC50 worked out at 1000 nM; the “Androgen receptor Agonism efficacy” value is on record as 44.27%; the “Androgen receptor Antagonism efficacy” value was 5%.
Take `C[C@]12CC[C@H]3[C@@H](CCC4=C(Cl)C(=O)CC[C@@H]43)[C@@H]1CC[C@@]21C=CC(=O)O1` [Example 14, 4-Chloro-17β-hydroxy-19-nor-17α-pregna-4,20(Z)-dien-3-one-21-carboxylic acid γ-lactone]: in assay [1], the “Mineralocorticoid receptor (MR) Competition factor” value is reported as 39.0. At androgen receptor [2], the IC50 came to 140 nM and the “Androgen receptor Competition factor” value is 7.5. The “Progesterone receptor Agonism EC50” value in assay [5] was “inactive”. In assay [3], the “Mineralocorticoid receptor Antagonism efficacy” value turned out to be 21.6% and the concentration for half-maximal inhibition (IC50) was found to be 700 nM. On androgen receptor [4], the 50% effective concentration (EC50) came to 100 nM, the IC50 was determined as 70.5 nM, the “Androgen receptor Agonism efficacy” value came to 22.74% and the “Androgen receptor Antagonism efficacy” value is given as 63.26%. Further, at progesterone receptor, the “Progesterone receptor (PR) Competition factor” value is 53.06, the “CF PR/CF MR” value was found to be 1.36 and the concentration for half-maximal inhibition (IC50) is 1200 nM.
Regarding `C[C@]12CC[C@H]3[C@@H](CCC4=CC(=O)CC[C@@H]43)[C@@H]1CC1(CC1)[C@@]21C=CC(=O)O1` (stereo in doubt) [Example 5, 16,16-(1,2-Ethanediyl)-17β-hydroxy-19-nor-17α-pregna-4,20(Z)-dien-3-one-21-carboxylic acid γ-lactone], the “Mineralocorticoid receptor (MR) Competition factor” value in assay [1] turned out to be 12.7. For the same compound, on androgen receptor [2], the IC50 was found to be 310 nM and the “Androgen receptor Competition factor” value is recorded as 33.8. For the same compound, in assay [5], a half-maximal response (EC50) required 13 nM and the “Progesterone receptor Agonism efficacy” value was 46.9%. For the same compound, in assay [3], the “Mineralocorticoid receptor Antagonism efficacy” value worked out at 73.1% and the IC50 came out at 840 nM. At androgen receptor [4], a half-maximal response (EC50) required 140 nM, half-maximal inhibition (IC50) was put at 1000 nM, the “Androgen receptor Agonism efficacy” value turned out to be 37.8% and the “Androgen receptor Antagonism efficacy” value is recorded as 5%. For the same compound, at progesterone receptor, the “Progesterone receptor (PR) Competition factor” value is given as 3.31, the “CF PR/CF MR” value turned out to be 0.26 and the IC50 worked out at 110 nM.
With `CC[C@@H]1CC2=CC(=O)CC[C@@H]2[C@H]2CC[C@@]3(C)[C@@H](CC[C@@]34C=CC(=O)O4)[C@H]12` (stereo in doubt) [Example 3A, 17β-Hydroxy-7α-ethyl-19-nor-17α-pregna-4,20(Z)-dien-3-one-21-carboxylic acid γ-lactone], in assay [1], the “Mineralocorticoid receptor (MR) Competition factor” value was 8.7. Further, at androgen receptor [2], the IC50 was found to be 89 nM and the “Androgen receptor Competition factor” value is listed as 2.8. For the same compound, in assay [5], the midpoint of the response, the EC50, lay at 780 nM and the “Progesterone receptor Agonism efficacy” value was 16.2%. In assay [3], the “Mineralocorticoid receptor Antagonism efficacy” value is given as 55.9% and the IC50 came to 360 nM. On androgen receptor [4], the EC50 was 25 nM, inhibition was half-maximal at 11 nM (IC50), the “Androgen receptor Agonism efficacy” value was determined as 30.25% and the “Androgen receptor Antagonism efficacy” value is reported as 41.26%. For the same compound, on progesterone receptor, the “Progesterone receptor (PR) Competition factor” value is on record as 54.22, the “CF PR/CF MR” value is recorded as 6.23 and the IC50 is 1300 nM.
As to `CC[C@]12CC[C@H]3[C@@H](C[C@@H](CO)C4=CC(=O)CC[C@@H]43)[C@@H]1CC[C@@]21C=CC(=O)O1` [Example 15], in assay [5], the “Progesterone receptor Agonism EC50” value was “inactive”. Also, the “Mineralocorticoid receptor Antagonism IC50” value in assay [3] is “inactive”. On androgen receptor [4], the EC50 was 1000 nM, the IC50 stood at 1000 nM, the “Androgen receptor Agonism efficacy” value was found to be 5% and the “Androgen receptor Antagonism efficacy” value is given as 5%.
For `C[C@]12CCC(=O)C=C1[C@@H]1C[C@@H]1[C@H]1[C@@H]3[C@@H]4C[C@@H]4[C@@]4(CCC(=O)O4)[C@@]3(C)CC[C@@H]12` [A, 6β,7β;15γ,16β-dimethylene-3-oxo-17-pregn-4-ene-21,17β-carbolactone, reference compound], the “Progesterone receptor Agonism efficacy” value in assay [5] amounted to 72.2%. Besides, the “Mineralocorticoid receptor Antagonism efficacy” value in assay [3] was determined as 64.1%.
On to `CC[C@]12CC[C@H]3[C@@H](CCC4=CC(=O)CC[C@@H]43)[C@@H]1CC[C@@]21C=CC(=O)O1` (stereo in doubt) [Example 6, 17β-Hydroxy-18-methyl-19-nor-17α-pregna-4,20(Z)-dien-3-one-21-carboxylic acid γ-lactone], for which the “Mineralocorticoid receptor (MR) Competition factor” value in assay [1] was 2.4. Also, on androgen receptor [2], the IC50 worked out at 28 nM and the “Androgen receptor Competition factor” value worked out at 3.4. Besides, in assay [3], the “Mineralocorticoid receptor Antagonism efficacy” value worked out at 109.6% and the IC50 stood at 12 nM. Besides, at androgen receptor [4], the EC50 amounted to 53 nM, the IC50 was 19 nM, the “Androgen receptor Agonism efficacy” value worked out at 59.8% and the “Androgen receptor Antagonism efficacy” value stood at 33.8%. In addition, on progesterone receptor, the “Progesterone receptor (PR) Competition factor” value came to 3.07, the “CF PR/CF MR” value was 1.28 and the IC50 stood at 45 nM.
For the compound `C[C@@H]1CC2=CC(=O)CC[C@@H]2[C@H]2CC[C@@]3(C)[C@@H](CC[C@@]34C=CC(=O)O4)[C@@H]21` (stereo in doubt) [Example 2A, 17β-Hydroxy-7α-methyl-19-nor-17α-pregna-4,20(Z)-dien-3-one-21-carboxylic acid γ-lactone], the “Mineralocorticoid receptor (MR) Competition factor” value in assay [1] turned out to be 7.6. In assay [5], the EC50 came out at 220 nM and the “Progesterone receptor Agonism efficacy” value was 44.4%. Also, in assay [3], the “Mineralocorticoid receptor Antagonism efficacy” value worked out at 129.8% and the IC50 worked out at 180 nM. At progesterone receptor, the “Progesterone receptor (PR) Competition factor” value is 8.33 and the 50% inhibitory concentration (IC50) was 310 nM.
On to `C[C@]12CC[C@H]3[C@@H](CC4(CC4)C4=CC(=O)CC[C@@H]43)[C@@H]1CC[C@@]21C=CC(=O)O1` [Example 18, 6,6-(1,2-Ethanediyl)-17β-hydroxy-19-nor-17α-pregna-4,20(Z)-dien-3-one-21-carboxylic acid γ-lactone], for which, in assay [3], the “Mineralocorticoid receptor Antagonism efficacy” value was determined as 89.3% and the IC50 amounted to 520 nM. Moreover, on androgen receptor [4], the concentration giving a half-maximal response (EC50) turned out to be 3.7 nM, 1000 nM corresponded to half-maximal inhibition (IC50), the “Androgen receptor Agonism efficacy” value came out at 87.91% and the “Androgen receptor Antagonism efficacy” value turned out to be 5%.
As to `CC[C@]12CC[C@H]3[C@@H](CC4(CC4)C4=CC(=O)CC[C@@H]43)[C@@H]1CC[C@@]21C=CC(=O)O1` [Example 16, 6,6-(1,2-Ethanediyl)-17β-hydroxy-18-methyl-19-nor-17α-pregna-4,20(Z)-dien-3-one-21-carboxylic acid γ-lactone], in assay [3], the “Mineralocorticoid receptor Antagonism efficacy” value is 107.9% and the concentration for half-maximal inhibition (IC50) amounted to 75 nM. In addition, at androgen receptor [4], the EC50 turned out to be 1.1 nM; the midpoint of inhibition, the IC50, lay at 1000 nM; the “Androgen receptor Agonism efficacy” value came out at 91.19%; the “Androgen receptor Antagonism efficacy” value was 5%.
Take `C[C@]12CC[C@H]3[C@@H](C[C@@H](CO)C4=CC(=O)CC[C@@H]43)[C@@H]1CC[C@@]21C=CC(=O)O1` [Example 17, 17β-Hydroxy-6β-hydroxymethylene-19-nor-17α-pregna-4,20(Z)-dien-3-one-21-carboxylic acid γ-lactone]: the “Progesterone receptor Agonism EC50” value in assay [5] was “inactive”. The “Mineralocorticoid receptor Antagonism IC50” value in assay [3] was “inactive”.
